{
  "source": "patent US5951473A",
  "about": "“Determination of intracellular sodium and potassium ions by NMR” (Board of Regents, The University of Texas System, priority 1997, dated 1999)",
  "key": {"[1]": {"test_system": "rat muscle", "conditions": "cited from earlier work"}, "[2]": {"test_system": "kidney sodium", "assay": "In vivo ^23 Na NMR of kidney during shift reagent infusion", "parameters": "species or system rat (Sprague-Dawley)", "protocol": "Male Sprage-Dawley rats were prepared for magnetic resonance exam and TmDOTP^5- was infused into animals as described in Example 2. TmDOTP^5- produced well resolved ^23 Na resonances in the kidney with a separation of 7-10 ppm between the extra- and intracellular Na^+ resonances after infusion of about 0.681 mmoles of the SR per Kilogram of Body Weight (KgBW). The inventors also observed a third ^23 Na resonance, broader than the extracellular resonance and shifted to about 35 ppm. This is the first time this resonance has been observed in any SR aided experiment in any organ. After about 10 minutes of TmDOTP^5- infusion (infusion dose 0.147 mmoles/KgBW), one broad shifted resonance became apparent at about 15 ppm. Continued infusion of the SR shifted this resonance further upfield. Simultaneously, another resonance became visible as a high frequency shoulder on the unshifted resonance after about 14 minutes of infusion (infusion dose 0.254 mmoles/KgBW). Finally, the three resonances became clearly resolved after about 17 minutes of infusion (infusion dose 0.334 mmoles/KgBW).\nThe single ^23 Na resonance broadened with infusion of this shift reagent and the intracellular Na^+ resonance became evident as a shoulder on the shifted extracellular Na^+ resonance only after 3-5 mmoles of DyTTHA^3- /KgBW had been infused."}, "[3]": {"test_system": "sodium in in vivo liver", "assay": "In vivo liver ^23 Na NMR with DyTTHA^3- (Blum et al., literature)", "conditions": "dose of Blum et al. versus present methods", "protocol": "This dose is about 4-6 times greater than a typical dose of MRI contrast agent (0.1-0.2 mmole kg^-1 ), such as GdDTPA^2-. The inventors are aware of only one other ^23 Na NMR study of in vivo liver using a SR. Blum, H., Osbakken, M. D. & Johnson, R. G. (1991) Magn. Reson. Med. 18, 348-357 infused 6 mmoles kg^-1 h^-1 of DyTTHA^3- for 60 to 90 minutes to discriminate between intra- and extracellular sodium. This SR dose is 8-12 times larger than the amount of TmDOTP^5- employed using the methods of the present invention. After DyTTHA^3- infusion, Blum, H., Osbakken, M. D. & Johnson, R. G. (1991) Magn. Reson. […] This is extremely important for valid measurement of tissues volumes, relaxation rates, and ^23 Na visibility during physiological interventions."}, "[4]": {"assay": "^23 Na NMR of blood and urine samples during shift reagent infusion", "assay_type": "in vivo, rat (Sprague-Dawley)", "conditions": "after DyTTHA^3- infusion", "excerpt": "^23 Na spectra obtained from the analysis of the blood and urine samples collected during infusion of either TmDOTP^5- or DyTTHA^3- were compared with the respective in vivo kidney spectrum. […] There was a signal from the urine sample at abut 35 ppm after infusion of DyTTHA^3- also, though there was no distinguishable signal in the corresponding in vivo spectrum (FIG. 3A and FIG. 3B)."}, "[5]": {"test_system": "sodium in in vivo liver", "conditions": "cited from earlier work"}, "[6]": {"test_system": "intra- and extracellular sodium of rat liver", "assay": "In vivo ^23 Na NMR shift experiments in rat liver during shift reagent infusion", "conditions": "for ^23 Na shift and line broadening in words: DyTTHA^3- versus TmDOTP^5-; for dose required to induce a ^23 Na shift of 5 ppm: body weight; for peak width at half height, extracellular resonance / peak width at half height, intracellular resonance: resonances separated by 5 ppm", "procedure": "(§1) Animal Preparation: Male Sprague-Dawley rats weighing 350-450 g were initially anesthetized by intramuscular injection of a 0.5 ml mixture of ketamine (13 mg/ml) and xylazine (87 mg/ml). Both jugular veins and a carotid artery were cannulated through a midline neck incision. One jugular vein was used to maintain the anesthesia (2 mg/ml ketamine, 0.25 mg/ml xylazine in 5% guaifenesin) at a rate of 2-3 ml/hour, and the other was used to infuse SR. The blood pressure and heart rate were continuously monitored from the carotid artery during the NMR experiments using a Gould transducer and Coulbourn polygraph. A tracheotomy was performed and the rat was connected to a respirator and maintained at a respiration rate of 90 breaths/minute and a tidal volume of 3 cc. The rats were also nephrectomized to eliminate clearance of the shift reagent, except in those animals where SR clearance was measured. Livers were exposed through a subcostal incision and a surface coil was positioned directly on the liver with the animal in a supine position. The animals were maintained at 37° C. using a water recirculating heating pad.\n(§2) SR Infusion: Stock solutions of 80 mM TmDOTP^5- or 400 mM DyTTHA^3- were initially infused at a rate of 2 ml/hr for 6 minutes. […] After achieving a chemical shift difference of 5-7 ppm between the intra- and extracellular sodium resonances, the infusion rate was reduced to 2-3 ml/hr. No Ca^2+ was added during infusion of either SR.\n(§3) NMR Data Collection: All in vivo NMR experiments were performed on a 4.7-T 40-cm GE CSI Omega spectrometer (GE NMR Instruments, Fremont, Calif.). Shimming was performed on the sodium signal. A sodium line width of 35-40 Hz was typical. Both ^23 Na and ^31 P spectra were collected in an interleaved fashion during TmDOTP^5- infusion. […] The coil performance was optimized such that there was less sensitivity loss at the ^31 P frequency as compared to at the ^23 Na frequency.\n(§4) Switching of these parameters and the spectrometer frequency was executed by a script in an automated fashion. To take advantage of the short spin-lattice relaxation time of sodium, two ^23 Na acquisitions were collected between each ^31 P acquisition. Cyclops phase cycling was used for both the nuclei. […] The FIDs were Fourier transformed after base-line correction and a single exponential multiplication corresponding to 10 Hz line broadening for ^23 Na and a 20 Hz line broadening for ^31 P."}, "[7]": {"conditions": "rat, in vivo", "procedure": "Rats with third degree burns covering 40% of the body surface were employed. Adult male Sprague-Dawley rats (300-500 g) were randomly divided into burn (n=7) and sham-burn (n=4) groups. […] Rats were deeply anesthetized with methoxyflurane, shaved, and secured in a template device. A full-thickness scald burn over 40% of the total body surface area was produced by immersing the exposed body surface into a 100° C. water bath for 12 s on the back and sides. The animals were quickly dried after each exposure to avoid additional injury. No postburn analgesics were administered for this model, since the burn injury was a full-thickness burn that destroys all cutaneous nerve endings; as a result, the rats experienced no postburn pain as evidenced by their eating, drinking, moving freely around the cage, and responding to external stimulus. The sham-burn rats were anesthetized and handled in an identical manner except they were exposed to room temperature water. After recovery from inhalation anesthesia, the animals were placed in separate cages and given food and water ad libitum.\nAt 24-hr postburn, the animals were anesthetized by intramuscular injection of a 0.5 ml mixture of ketamine (87 mg/ml) and xylazine (13 mg/ml) and were placed on a warming blanket. The left femoral vein, left femoral artery, and left jugular vein were cannulated for supplemental anesthesia for arterial blood pressure measurement and for infusion of the shift reagent, respectively. Heparinized saline, 9 U/ml, was used in the arterial line. A midline laparotomy was performed to expose the liver, and the xiphoid process was removed. Each rat was then secured in a cradle in an upright position for the MRS experiments. A 2.2 cm diameter surface coil dual tuned to 47 MHz for ^23 Na and 72 MHz for ^31 P was positioned over the intersection of the three major lobes and the abdominal incision was sutured in separate layers around the insulated coil leads to prevent fluid and heat loss during NMR data collection. […]"}, "[8]": {"test_system": "rat liver phosphate metabolites and intracellular pH", "assay": "In vivo ^31 P NMR (interleaved) of rat liver during shift reagent infusion", "procedure": "as §1, §2, §3, §4"}, "[9]": {"test_system": "rat brain", "conditions": "cited from earlier work"}, "[10]": {"conditions": "rat, in vivo", "remark": "listed apart in the source", "procedure": "as §1, §2\n(§5) Several key physiological measurements were obtained on a group of animals (n=7) during infusion of TmDOTP^5- using the same protocol as used during all subsequent NMR measurements. […] Excess Ca^2+ was not coadded with the SR in these experiments, unlike in isolated perfused heart experiments where excess Ca^2+ must be coadded with TmDOTP^5- to maintain an extracellular free [Ca^2+ ] of about 1 mM.\n(§6) Serum sodium, potassium, and hemoglobin concentrations as well as arterial pH, pCO2 and pO2 were monitored throughout the infusion protocol using a standard clinical blood gas analyzer."}, "[11]": {"test_system": "rat liver", "conditions": "in vivo, iv", "procedure": "as §1\nThe washout rate of TmDOTP^5- was measured by monitoring the frequency of the shifted ^23 Na peak after stopping the infusion."}, "[12]": {"test_system": "rat liver Na^+ (i) and Na^+ (e)", "procedure": "Rats with third degree burns covering 40% of the body surface were employed. Adult male Sprague-Dawley rats (300-500 g) were randomly divided into burn (n=7) and sham-burn (n=4) groups. […] Rats were deeply anesthetized with methoxyflurane, shaved, and secured in a template device. A full-thickness scald burn over 40% of the total body surface area was produced by immersing the exposed body surface into a 100° C. water bath for 12 s on the back and sides. The animals were quickly dried after each exposure to avoid additional injury. […] The sham-burn rats were anesthetized and handled in an identical manner except they were exposed to room temperature water. After recovery from inhalation anesthesia, the animals were placed in separate cages and given food and water ad libitum.\nAt 24-hr postburn, the animals were anesthetized by intramuscular injection of a 0.5 ml mixture of ketamine (87 mg/ml) and xylazine (13 mg/ml) and were placed on a warming blanket. The left femoral vein, left femoral artery, and left jugular vein were cannulated for supplemental anesthesia for arterial blood pressure measurement and for infusion of the shift reagent, respectively. Heparinized saline, 9 U/ml, was used in the arterial line. A midline laparotomy was performed to expose the liver, and the xiphoid process was removed. Each rat was then secured in a cradle in an upright position for the MRS experiments. A 2.2 cm diameter surface coil dual tuned to 47 MHz for ^23 Na and 72 MHz for ^31 P was positioned over the intersection of the three major lobes and the abdominal incision was sutured in separate layers around the insulated coil leads to prevent fluid and heat loss during NMR data collection.\nConcurrent ^23 Na and ^31 P spectra were collected using a Nicolet NT 180 spectrometer with an Oxford 4.2 T vertical bore (130 mm) superconducting magnet. The field homogeneity was adjusted first with the ^1 H free induction decay (FID) from the liver and then with the ^23 Na FID for maximum field uniformity. A ^23 Na line width of 40-50 Hz was typical. ^23 Na spectra were generated from the summed FIDs of 100 excitation pulses (40 μs) at 105-ms intervals using 1,024 word data files and a sweep width of ±3000 Hz. The spectra were zero-filled to 4,096 points before Fourier transformation. The relative areas of the Na^+ (i) and Na^+ (e) resonances in the ^23 Na spectra and of the β-ATP and Pi resonances in the phosphorus spectra were determined with the GEMCAP curve analysis program supplied with the Nicolet software.\nAfter initial baseline spectra were obtained, infusion of TmDOTP^5 was begun at 0.5 mmol kg^-1 h^-1, and the rate was increased slowly to 1.2 or 1.6 mmol kg^-1 h^- over a period of 12 min. […]"}, "[13]": {"test_system": "in vivo exposed livers", "conditions": "rat", "procedure": "Animal Preparation: Male Sprague-Dawley rats weighing 350-450 g were initially anesthetized by intramuscular injection of a 0.5 ml mixture of ketamine (13 mg/ml) and xylazine (87 mg/ml). Both jugular veins and a carotid artery were cannulated through a midline neck incision. One jugular vein was used to maintain the anesthesia (2 mg/ml ketamine, 0.25 mg/ml xylazine in 5% guaifenesin) at a rate of 2-3 ml/hour, and the other was used to infuse SR. The blood pressure and heart rate were continuously monitored from the carotid artery during the NMR experiments using a Gould transducer and Coulbourn polygraph. A tracheotomy was performed and the rat was connected to a respirator and maintained at a respiration rate of 90 breaths/minute and a tidal volume of 3 cc. The rats were also nephrectomized to eliminate clearance of the shift reagent, except in those animals where SR clearance was measured. […]\nThe resting transmembrane potential (-Em) was measured in in vivo exposed livers using a modified Ling-Gerard ultramicroelectrode Holliday, R. L., Illner, H. P. & Shires, G. T. (1981) J. Surg. […] Serum sodium, potassium, and hemoglobin concentrations as well as arterial pH, pCO2 and pO2 were monitored throughout the infusion protocol using a standard clinical blood gas analyzer."}, "[14]": {"test_system": "renal phosphate metabolites", "assay": "In vivo ^31 P NMR of kidney and blood pressure during TmDOTP^5- infusion", "parameters": "species or system rat (Sprague-Dawley)"}, "[15]": {"conditions": "Bansal et al. 1992; cited from earlier work"}, "[16]": {"conditions": "live rats, Bansal et al. 1992; cited from earlier work"}, "[17]": {"assay": "Physiological measurements (heart rate, pressure, blood serum and gas values) in rats during TmDOTP^5- infusion", "conditions": "doses required for baseline resolution of ^23 Na resonances", "procedure": "as §1, §2, §5, §6"}},
  "note": "Entries after “also recorded” stand apart in the source; their conditions may differ.",
  "data": [
    {"compound": "O=C([O-])CN(CCN(CCN(CC(=O)[O-])CC(=O)[O-])CC(=O)[O-])CCN(CC(=O)[O-])CC(=O)[O-].[Dy+3]", "note": "[DyTTHA^3-, dysprosium(III)triethylenetetraminehexaacetate]", "values": [
      {"measurement": "washout t1/2", "setting": "[1]", "value": 44, "unit": "min"},
      {"measurement": "dose at which intracellular Na^+ resonance became evident as a shoulder", "setting": "[2]; kidney", "value": "3-5 mmoles/KgBW"},
      {"measurement": "dose ratio versus TmDOTP^5- for comparable shift", "setting": "[2]; kidney", "value": "5-8 times"},
      {"measurement": "resolution of Na^+ resonances in kidney in words", "setting": "[2]; kidney in vivo", "value": "did not produce resolved Na^+ resonances"},
      {"measurement": "third highly shifted Na^+ resonance in kidney in words", "setting": "[2]; kidney in vivo", "value": "no indication of the existence of the third highly shifted Na^+ resonance"},
      {"measurement": "dose ratio of DyTTHA^3- versus TmDOTP^5-", "setting": "[3]", "value": "8-12 times"},
      {"measurement": "shift of ^23 Na signal from urine sample", "setting": "[4]", "value": "~35", "unit": "ppm"},
      {"measurement": "resolution of sodium resonances in words", "setting": "[5]; 6 mmoles kg^-1 h^-1 for 60 to 90 minutes", "value": "very broad and were not resolved"},
      {"measurement": "extracellular Na^+ signal shift in words", "setting": "[5]; Blum et al.", "value": "shifted downfield by about the same amount as in the present study"},
      {"measurement": "broadening factor of intracellular resonance line-width, DyTTHA^3- versus TmDOTP^5-", "setting": "[6]; rat liver", "value": "~3", "unit": "factor"},
      {"measurement": "resolution of intra- and extracellular ^23 Na resonances in words", "setting": "[6]; rat liver", "value": "very broad and not resolved; also recorded: did not improve the resolution of intra- and extracellular resonances"},
      {"measurement": "^23 Na shift and line broadening in words", "setting": "[6]; rat liver", "value": "much lower ^23 Na shift per unit concentration and more severe line broadening"},
      {"measurement": "dose required to induce a ^23 Na shift of 5 ppm", "setting": "[6]; rat liver", "value": 3.74, "unit": "mmol/kg"},
      {"measurement": "peak width at half height, extracellular resonance", "setting": "[6]; rat liver", "value": 300, "unit": "Hz"},
      {"measurement": "peak width at half height, intracellular resonance", "setting": "[6]; rat liver", "value": 195, "unit": "Hz"},
      {"measurement": "hemodynamic stability during infusion", "setting": "[6]; versus TmDOTP^5-", "value": "hemodynamically more stable"}
    ]},
    {"compound": "thulium(III) 1,4,7,10-tetraazacyclododecane-1,4,7,10-tetrakis (methylene phosphonate) [TmDOTP^5-]", "values": [
      {"measurement": "heart rate throughout the study", "setting": "[7]", "value": "261±19", "unit": "beats/min"},
      {"measurement": "mean arterial blood pressure (MAP) after infusion, burn group", "setting": "[7]", "value": "65±4", "unit": "mm Hg"},
      {"measurement": "mean arterial blood pressure (MAP) after infusion, sham burn group", "setting": "[7]", "value": "78±3", "unit": "mm Hg"},
      {"measurement": "intracellular Na^+ resonance intensity with further infusion, kidney", "setting": "[2]; kidney in vivo", "value": "does not change with further SR infusion"},
      {"measurement": "resolution of Na^+ resonances in kidney in words", "setting": "[2]; kidney in vivo", "value": "well resolved"},
      {"measurement": "separation between extra- and intracellular Na^+ resonances", "setting": "[2]; kidney, about 0.681 mmoles/KgBW", "value": "7-10 ppm"},
      {"measurement": "shift of broad shifted resonance", "setting": "[2]; kidney, about 10 minutes, 0.147 mmoles/KgBW", "value": "about 15 ppm"},
      {"measurement": "infusion dose at which second resonance became visible as shoulder", "setting": "[2]; kidney, about 14 minutes", "value": 0.254, "unit": "mmoles/KgBW"},
      {"measurement": "infusion dose at which three resonances became clearly resolved", "setting": "[2]; kidney, about 17 minutes", "value": 0.334, "unit": "mmoles/KgBW"},
      {"measurement": "shift of third ^23 Na resonance", "setting": "[2]; kidney, after TmDOTP^5- infusion", "value": "about 35 ppm"},
      {"measurement": "^31 P resonances / phosphate metabolites", "setting": "[8]; rat liver during infusion", "value": "without producing any changes in phosphate metabolite resonances; also recorded: unaffected"},
      {"measurement": "intracellular pH", "setting": "[8]; rat liver, from shift of inorganic phosphate peak", "value": "without producing any changes in phosphate metabolite resonances or intracellular pH; also recorded: unaffected"},
      {"measurement": "washout t1/2", "setting": "[9]", "value": 37, "unit": "min"},
      {"measurement": "arterial pCO2", "setting": "[10]", "value": "45±2", "unit": "mm Hg"},
      {"measurement": "arterial pH", "setting": "[10]", "value": "7.36±0.02"},
      {"measurement": "arterial pO2", "setting": "[10]", "value": "120±8", "unit": "mm Hg"},
      {"measurement": "developed pressure during infusion", "setting": "[10]", "value": "40±5", "unit": "mm Hg"},
      {"measurement": "free Ca^2+ levels in blood serum", "setting": "[10]", "value": "relatively small change"},
      {"measurement": "heart rate during infusion", "setting": "[10]", "value": "240±20"},
      {"measurement": "hemoglobin", "setting": "[10]", "value": "13 ± 1", "unit": "g/dL"},
      {"measurement": "increase in serum sodium", "setting": "[10]", "value": 10, "unit": "meq/L"},
      {"measurement": "mean arterial pressure (MAP) during infusion", "setting": "[10]", "value": "~70", "unit": "mm Hg"},
      {"measurement": "serum potassium", "setting": "[10]", "value": "3.5±0.2", "unit": "meq/L"},
      {"measurement": "serum sodium after infusion", "setting": "[10]", "value": "158±5", "unit": "meq/L"},
      {"measurement": "washout t1/2", "setting": "[11]", "value": 9, "unit": "min"},
      {"measurement": "total dosage needed to produce an equivalent Na^+ shift, burned animals", "setting": "[12]; burned rats, liver", "value": "0.44 ± 0.04", "unit": "mmol"},
      {"measurement": "total dosage needed to produce an equivalent Na^+ shift, control animals", "setting": "[12]; control rats, liver", "value": "0.64 ± 0.08", "unit": "mmol"},
      {"measurement": "Na^+ (i) concentration in hepatic cells on infusion", "setting": "[12]; rat, in vivo", "value": "did not alter Na^+ (i) concentration in hepatic cells"},
      {"measurement": "^31 P spectra of livers during infusion", "setting": "[12]; rat, in vivo", "value": "did not change appreciably"},
      {"measurement": "resting transmembrane potential (-Em) of liver", "setting": "[13]", "value": "tended to increase during the highest infusion rates"},
      {"measurement": "renal high energy phosphate levels", "setting": "[14]; kidney", "value": "unaffected"},
      {"measurement": "^31 P resonance areas and chemical shifts, kidney", "setting": "[14]; kidney during infusion", "value": "did not produce any change"},
      {"measurement": "blood pressure of the animals", "setting": "[14]; kidney study", "value": "small drop in blood pressure"},
      {"measurement": "crossing of the blood brain barrier", "setting": "[15]", "value": "does not cross the blood brain barrier"},
      {"measurement": "dose at which intra- and extracellular ^23 Na resonances were clearly resolved", "setting": "[6]; rat liver", "value": 0.55, "unit": "mmol/kg"},
      {"measurement": "intracellular Na^+ peak intensity with further infusion", "setting": "[6]; rat liver", "value": "did not change with further infusion"},
      {"measurement": "resolution of intra- and extracellular ^23 Na resonances in words", "setting": "[6]; rat liver", "value": "sharp and well resolved; also recorded: baseline resolved peaks"},
      {"measurement": "^23 Na shift and line broadening in words", "setting": "[6]; rat liver", "value": "larger ^23 Na chemical shift per unit concentration"},
      {"measurement": "paramagnetic shift of extracellular Na^+", "setting": "[6]; rat liver, after 0.65 mmoles kg^-1", "value": "approximately 5 ppm"},
      {"measurement": "dose required to induce a ^23 Na shift of 5 ppm", "setting": "[6]; rat liver", "value": 0.65, "unit": "mmol/kg"},
      {"measurement": "peak width at half height, extracellular resonance", "setting": "[6]; rat liver", "value": 80, "unit": "Hz"},
      {"measurement": "peak width at half height, intracellular resonance", "setting": "[6]; rat liver", "value": 70, "unit": "Hz"},
      {"measurement": "Ca^2+ release from body stores during infusion", "setting": "[16]", "value": "rapidly released from body stores"},
      {"measurement": "liver physiology / tolerability in words", "setting": "[17]", "value": "may be safely used in intact animal studies without the co-addition of Ca^2+; also recorded: basic liver physiology is largely unaffected; also recorded: quite non-perturbing to the animal"}
    ]}
  ]
}
